One assay relates to m-MDSC. The assay can be described thus: quantitative proteomics and Ingenuity Pathway Analysis of m-MDSC. The assay is classed as cell-based, mouse. On the procedure: (§1) Immunosuppressive myeloid cell subsets resembling tumor-infiltrating subsets (g-MDSCs, m-MDSCs and TAMs) were differentiated from mouse bone marrow following published procedures using conditioning medium produced by LLC tumor cells stably expressing GMCSF and MCSF cells. g- and m-MDSCs were purified using the myeloid-derived suppressor cell isolation kit (Miltenyi Biotec, Bergisch, Germany) according to manufacturer's recommendations. MDSCs and TAMs were seeded with 500 nM BML-275 or 50 μM oleuropein and incubated for seven days.
A unique proteomic experiment was carried out with five biological replicates per sample (m-MDSC, g-MDSC and TAM). Cells were homogenized in a lysis buffer containing 7 M urea, 2 M thiourea 50 mM DTT. The homogenates were spun down at 14000 g for 1 h at 15 °C. Before proteomic analysis, protein extracts were diluted with Laemmli sample buffer in 100 μL and loaded into a 0.75 mm thick polyacrylamide gel with a 4% stacking gel casted over a 12.5% resolving gel. The run was stopped as soon as the front entered 3 mm into the resolving gel so that the whole proteome became concentrated in the stacking/resolving gel interface. Bands were stained with Coomassie Brilliant Blue, excised from the gel and protein enzymatic cleavage was carried out with trypsin (Promega; 1:20, w/w) at 37 °C for 16 h as previously described. Purification and concentration of peptides was performed using C18 Zip Tip Solid Phase Extraction (Millipore).
Peptide mixtures were separated by reverse phase chromatography using an UltiMate 3000 UHLPC System (Thermo Scientific) fitted with an Aurora packed emitter column (lonopticks, 25 cm×75 μm ID, 1.6 μm C18). Samples were first loaded for desalting and concentration into an Acclaim PepMap column (ThermoFisher, 0.5 cm×300 μm ID, 5 μm C18) packed with the same chemistry as the separating column. Mobile phases were 100% water 0.1% formic acid (FA) (buffer A) and 100% Acetonitrile 0.1% FA (buffer B). Column gradient was developed in a 120 min two step gradient from 5% B to 20% B in 90 min and 20% B to 32% B in 30 min. Column was equilibrated in 95% B for 10 min and 5% B for 20 min. During the whole process, the precolumn was in line with the column and the flow maintained all along the gradient at 300 nl/min. The column temperature was maintained at 40 °C using an integrated column oven (PRSO-V2, Sonation, Biberach, Germany) and interfaced online with the Orbitrap Exploris 480 MS. Spray voltage were set to 2 kV, funnel RF level at 40, and heated capillary temperature at 300 °C. For DDA experiments full MS resolutions were set to […] at m/z 200 and full MS AGC target was set to Standard with an IT mode Auto. Mass range was set to 375-1500. AGC target value for fragment spectra was set to Standard with a resolution of 15,000 and 3 seconds for cycle time. The intensity threshold was kept at 8E3. Isolation width was set at 1.4 m/z. Normalized collision energy was set at 30%. All data were acquired in centroid mode using positive polarity and peptide match was set to off, and isotope exclusion was on.
Raw files were processed with MaxQuant v1.6.17.0 using the integrated Andromeda Search engine. All data were searched against a target/decoy version of the mouse Uniprot Reference Proteome with March 2021 release. First search peptide tolerance was set to 20 ppm, main search peptide tolerance was set to 4.5 ppm. Fragment mass tolerance was set to 20 ppm. Trypsin was specified as enzyme, […] carbamidomethylation of cysteine was specified as fixed modification and peptide N-terminal acetylation, oxidation of methionine, deamidation of asparagine and glutamine and pyro-glutamate formation from glutamine and glutamate were considered variable modifications with a total of two variable modifications per peptide. […]

The test system of a further assay is TAMs. Nature of the assay: morphology of ex vivo TAM cultures, phase contrast micrographs (FIG. 2a). It is filed as cell-based, mouse. As to conditions: TAMs treated with oleuropein. On the procedure: as §1
Assay [1] deals with myeloid cells from NSCLC patients. Nature of the assay: myeloid cells from NSCLC patients treated ex vivo, flow cytometry (FIG. 6a). It is filed as cell-based, human. On the procedure: Surface and intracellular staining were carried out as described before with the following fluorochrome-conjugated antibody clones: AF488 anti-CD49d (R1-2), PE anti-CD4 (GK1.5), APCanti-CD8(53-6.7), brilliant Violet 510™ anti-I-A/I-E (M5/114.15.2,PE/Cyanine7anti-Ly-6G (1A8), and APC anti-CD80 (16-10A1) (Biolegend), FITC anti-IL-12 (C15.6) and BV421 anti-IL-2 (JES6-5H4) (BD Bioscience), APC-Vio® 770 anti-Ly-6C (REA796), PE REAfinity™ anti-F4/80 (REA126), and APC anti-CD68 (REA886) (Miltenyi), PerCP-Cyanine5.5 Anti-Human/Mouse CD11b (M1/70) (Tonbo), and AF488 anti-IFNγ (Clone XMG1.2) (BD Pharmigen). For human cells, it was used the following fluorochrome-conjugated antibodies: PerCP-Cy5.5-anti-CD11b (integrina alfa M) (M1/70), Violet Fluor 450 anti-CD14 antibody (61D3) (Tonbo), PE anti-CD115 (CSF-1R) (9-4D2-1E4) (Biolegend), PE-Cy™7 anti-CD11c (Clone B-ly6) (BD Bioscience), and APC anti-HLA-DR (REA517) (Miltenyi).
Data were collected using the FACSCanto Flow Cytometer (BD Biosciences) for ex vivo and in vitro experiments at Navarrabiomed Biomedical Research Center and Cyroflex LX flow cytometer (Beckman Counter). Data were analyzed with Flowjo.
Twenty-one patients diagnosed with locally advanced or metastatic NSCLC treated with the immune checkpoint inhibitors (ICI) pembrolizumab (anti-PD-1) were recruited for the study. The characteristics of the cohort under study have been described before, and this observational study was approved by the Ethics Committee of Clinical Investigations at the University Hospital of Navarre (reference number: PI_2020/115). 11 of the patients were chemoresistant. Blood samples from non-small cell lung cancer (NSCLC) patients were collected prior to treatment and before administration of each immunotherapy cycle.
PBMCs were isolated as described and grown in vitro for 24 h in TEXCMACs medium (Miltenyi Biotec). Myeloid cells were obtained by adherence to plastic for 24 h. Then, 50,000 myeloid cells were seeded per well with 50 µM oleuropein in 96-well plates and incubated for seven days.

Setting [2] is: oleuropein 50 μM, seven days, N=21 patients.

Consider one compound from US20260364101A1, “OLEUROPEIN IN THE MANAGEMENT OF CANCER” (FUNDACIÓN MIGUEL SERVET, priority 2023, published 2026).

As to `C/C=C1/[C@H](O[C@@H]2O[C@H](CO)[C@@H](O)[C@H](O)[C@H]2O)OC=C(C(=O)OC)[C@H]1CC(=O)OCCc1ccc(O)c(O)c1` [oleuropein], in the assay with m-MDSC (IPA, m-MDSC), the BAG2 signalling entry is recorded as “activated”, the EIF2 signalling entry is listed as “activated”, the FAT10 signalling entry is “down-modulated” and the “NRF2-mediated oxidative stress response” value is “downregulated”. For the same compound, in the assay on m-MDSC (IPA, m-MDSC), the “granzyme A signalling” value was “activated”, the “production of proinflammatory cytokines” value is on record as “down-modulated”, the sirtuin signalling entry was “activated” and the “upstream regulator PTEN” value is “increase”. The upstream regulator methylprednisolone result in the assay on m-MDSC (IPA, m-MDSC) is reported as “decrease”. The “effect over m-MDSC intracellular regulatory pathways” value in the assay with m-MDSC (m-MDSC) is “potent effect over m-MDSC intracellular regulatory pathways”. The proteins differentially regulated with m-MDSC (m-MDSC treated with oleuropein, data not shown) is reported as 912 proteins. Besides, the morphology / phenotype result in the assay on TAMs is “acquired an M1-like phenotype”. Also, the “activation of myeloid cells of subjects suffering lung cancer” value in assay [1] (including anti-PD-1-based therapy resistance) was “induced the activation of myeloid cells”. Besides, in assay [1] (setting [2]), the “CD11b+ cells” value is reported as “increase”, the “expression of CD11c+HLA-DR” value is reported as “elevation”, the “expression of CD14+HLA-DR” value is recorded as “elevation” and the “expression of CD115+HLA-DR” value was “elevation”.
